Test results taken from ChEMBL document CHEMBL5537143, “Synthesis and antimicrobial properties of guanidine-functionalized labdane type diterpenoids” (Eur J Med Chem, 2024).
In brackets after ≈: the same amount, converted by molar mass.

Tests used:
Candida albicans [1] = assay: Antifungal activity against Candida albicans ATCC 10231 assessed as reduction in fungal growth incubated for 48 hrs by CLSI based analysis; assay type: functional; settings: read-out: MIC100
Candida albicans [2] = assay: Antifungal activity against Candida albicans ATCC 90028 assessed as reduction in fungal growth incubated for 48 hrs by CLSI based analysis; assay type: functional
Pseudomonas aeruginosa [3] = assay: Antimicrobial activity against Pseudomonas aeruginosa PAO1 assessed as inhibition of microbial growth at 128 microg/ml incubated for 24 hrs by broth-microdilution assay relative to control; assay type: functional
[4] = Acute toxicity in zebrafish embryo assessed as mortality rate at 4 microg/ml preincubated with compound for 24 hrs and measured after 48 to 72 hrs post fertilization; design: species or system Danio rerio; settings: in vivo, at 4 µg/mL
[5] = tested on: Staphylococcus epidermidis; assay: Antimicrobial activity against Staphylococcus epidermidis ATCC 35984 assessed as inhibition of microbial growth incubated for 24 hrs by broth-microdilution assay; assay type: functional; settings: Staphylococcus epidermidis, ATCC 35984, read-out: MIC
Klebsiella pneumoniae [6] = assay: Antimicrobial activity against Klebsiella pneumoniae ATCC 13883 assessed as inhibition of microbial growth incubated for 24 hrs by broth-microdilution assay; assay type: functional; settings: read-out: MIC
[7] = Acute toxicity in zebrafish embryo assessed as mortality rate at 0.7 microg/ml preincubated with compound for 24 hrs and measured after 48 to 72 hrs post fertilization; design: species or system Danio rerio; settings: in vivo, at 0.7 µg/mL
Staphylococcus aureus [8] = assay: Antimicrobial activity against Staphylococcus aureus 29213 assessed as inhibition of microbial growth incubated for 24 hrs by broth-microdilution assay; assay type: functional
Pseudomonas aeruginosa [9] = assay: Antimicrobial activity against Pseudomonas aeruginosa ATCC 27853 assessed as inhibition of microbial growth incubated for 24 hrs by broth-microdilution assay; assay type: functional; settings: Pseudomonas aeruginosa, ATCC 27853
[10] = Acute toxicity in zebrafish embryo preincubated with compound for 24 hrs and measured after 48 to 96 hrs post fertilization; design: species or system Danio rerio; settings: in vivo
[11] = Acute toxicity in zebrafish embryo assessed as mortality rate at 32 microg/ml preincubated with compound for 24 hrs and measured after 48 to 72 hrs post fertilization; design: species or system Danio rerio; settings: in vivo, at 32 µg/mL
Staphylococcus aureus [12] = assay: Synergistic antimicrobial activity against methicillin resistant Staphylococcus aureus 43300 assessed as inhibition of microbial growth incubated for 24 hrs in presence of Oxacillin by checkerboard assay; assay type: functional; settings: read-out: MIC100
Staphylococcus aureus [13] = assay: Antimicrobial activity against Staphylococcus aureus ATCC 43300 assessed as inhibition of microbial growth incubated for 24 hrs by broth-microdilution assay; assay type: functional; settings: Staphylococcus aureus, ATCC 43300, read-out: MIC100
Candida albicans [14] = assay: Synergistic antifungal activity against Candida albicans ATCC 10231 assessed as Voriconazole MIC incubated for 48 hrs by CLSI based analysis; assay type: functional; settings: read-out: MIC100
Klebsiella pneumoniae [15] = assay: Synergistic antimicrobial activity against Klebsiella pneumoniae ATCC BAA1705 assessed as inhibition of microbial growth incubated for 24 hrs in presence of Imipenem by checkerboard assay; assay type: functional; settings: read-out: MIC100
Staphylococcus aureus [16] = assay: Synergistic antimicrobial activity against methicillin resistant Staphylococcus aureus 43300 assessed as fractional inhibitory concentration index incubated for 24 hrs in presence of Oxacillin by checkerboard assay; assay type: functional
[17] = Acute toxicity in zebrafish embryo assessed as mortality rate at 2 microg/ml preincubated with compound for 24 hrs and measured after 48 to 72 hrs post fertilization; design: species or system Danio rerio; settings: in vivo, at 2 µg/mL
[18] = Acute toxicity in zebrafish embryo assessed as mortality rate at 16 microg/ml preincubated with compound for 24 hrs and measured after 48 to 72 hrs post fertilization; design: species or system Danio rerio; settings: in vivo, at 16 µg/mL
Klebsiella pneumoniae [19] = assay: Antimicrobial activity against Klebsiella pneumoniae ATCC BAA1705 assessed as inhibition of microbial growth incubated for 24 hrs by broth-microdilution assay; assay type: functional; settings: read-out: MIC
[20] = tested on: Staphylococcus epidermidis; assay: Antimicrobial activity against Staphylococcus epidermidis ATCC 12228 assessed as inhibition of microbial growth incubated for 24 hrs by broth-microdilution assay; assay type: functional; settings: Staphylococcus epidermidis, ATCC 12228, read-out: MIC
Klebsiella pneumoniae [21] = assay: Antimicrobial activity against Carbapenem-resistant Klebsiella pneumoniae ATCC BAA1705 assessed as inhibition of microbial growth incubated for 24 hrs by broth-microdilution assay; assay type: functional
[22] = Acute toxicity in zebrafish embryo assessed as mortality rate at 16 microg/ml preincubated with compound for 24 hrs and measured after 24 hrs post fertilization; design: species or system Danio rerio; settings: in vivo, at 16 µg/mL
Klebsiella pneumoniae [23] = assay: Antimicrobial activity against Carbapenem -resistant Klebsiella pneumoniae ATCC 13883 assessed as inhibition of microbial growth incubated for 24 hrs by broth-microdilution assay; assay type: functional
[24] = Acute toxicity in zebrafish embryo assessed as mortality rate at 8 microg/ml preincubated with compound for 24 hrs and measured after 48 to 72 hrs post fertilization; design: species or system Danio rerio; settings: in vivo, at 8 µg/mL
Candida albicans [25] = assay: Synergistic antifungal activity against Candida albicans ATCC 10231 assessed as reduction in fungal growth incubated for 48 hrs in presence of Voriconazole by CLSI based analysis; assay type: functional; settings: read-out: MIC100
Pseudomonas aeruginosa [26] = assay: Antimicrobial activity against Pseudomonas aeruginosa 27853 assessed as inhibition of microbial growth at 128 microg/ml incubated for 24 hrs by broth-microdilution assay relative to control; assay type: functional
Staphylococcus aureus [27] = assay: Antimicrobial activity against methicillin resistant Staphylococcus aureus 43300 assessed as inhibition of microbial growth incubated for 24 hrs by broth-microdilution assay; assay type: functional; settings: read-out: MIC
[28] = Acute toxicity in zebrafish embryo preincubated with compound for 24 hrs and measured after 24 hrs post fertilization; design: species or system Danio rerio; settings: in vivo
Candida albicans [29] = assay: Synergistic antifungal activity against Candida albicans ATCC 10231 assessed as fractional inhibitory concentration index incubated for 48 hrs in presence of Voriconazole by CLSI based analysis; assay type: functional
Staphylococcus aureus [30] = assay: Antimicrobial activity against Staphylococcus aureus ATCC 29213 assessed as inhibition of microbial growth incubated for 24 hrs by broth-microdilution assay; assay type: functional; settings: Staphylococcus aureus, ATCC 29213, read-out: MIC100
Pseudomonas aeruginosa [31] = assay: Antimicrobial activity against Pseudomonas aeruginosa PAO1 assessed as inhibition of microbial growth incubated for 24 hrs by broth-microdilution assay; assay type: functional
Klebsiella pneumoniae [32] = assay: Synergistic antimicrobial activity against Klebsiella pneumoniae ATCC BAA1705 assessed as Imipenem MIC incubated for 24 hrs by checkerboard assay; assay type: functional; settings: read-out: MIC100
Klebsiella pneumoniae [33] = assay: Synergistic antimicrobial activity against Klebsiella pneumoniae ATCC BAA1705 assessed as fractional inhibitory concentration index incubated for 24 hrs in presence of Imipenem by checkerboard assay; assay type: functional
Staphylococcus aureus [34] = assay: Synergistic antimicrobial activity against methicillin resistant Staphylococcus aureus 43300 assessed as Oxacillin MIC incubated for 24 hrs by checkerboard assay; assay type: functional; settings: read-out: MIC100
[35] = Acute toxicity in zebrafish embryo assessed as mortality rate at 32 microg/ml preincubated with compound for 24 hrs and measured after 24 hrs post fertilization; design: species or system Danio rerio; settings: in vivo, at 32 µg/mL

With `C[C@@H](c1ncncc1F)[C@](O)(Cn1cncn1)c1ccc(F)cc1F` [VORICONAZOLE] the MIC (Candida albicans [1]) was ≥ 1 µg/mL and the MIC (Candida albicans [2]; read-out: MIC100) was ≤ 0.12 µg/mL.
Compound `CC1(C)CCC[C@]2(C)[C@H]3CC[C@@](C)(CC(=O)NC(=N)N)O[C@]3(C)CC[C@@H]12` has an inhibition at 128 µg/mL (Pseudomonas aeruginosa [3]) of 65%, a mortality at 4 microg/ml [4] of 0% and an MIC [5] of 4 µg/mL. It also gave an MIC (Klebsiella pneumoniae [6]) of 16 µg/mL, a mortality at 24 h, 0.7 microg/ml [7] of 5% and an MIC (Staphylococcus aureus [8]) of 4 µg/mL. For the same compound, the MIC (Candida albicans [1]) was 16 µg/mL (≈ 44 µM), the MIC50 (Pseudomonas aeruginosa [9]) was 128 µg/mL and the LC50 [10] was 11.5 µg/mL (≈ 31.6 µM). The mortality at 24 h, 32 microg/ml [11] was 100%, the MIC (Staphylococcus aureus [12]) was 2 µg/mL and the MIC (Staphylococcus aureus [13]) was 8 µg/mL. The MIC (Candida albicans [14]) was 0.125 µg/mL, the MIC (Klebsiella pneumoniae [15]) was 16 µg/mL and the MIC (Candida albicans [2]; read-out: MIC) was 16 µg/mL (≈ 44 µM). For the same compound, the “fractional inhibitory concentration index (FICI)” value (Staphylococcus aureus [16]) was 0.55, the mortality at 2 microg/ml [17] was 0% and the mortality at 16 microg/ml [18] was 100%. It also gave an MIC (Klebsiella pneumoniae [19]) of 32 µg/mL, an MIC [20] of 4 µg/mL and an MIC (Klebsiella pneumoniae [21]) of 32 µg/mL. It also gave a mortality at 24 h, 16 microg/ml [22] of 10%, an MIC (Klebsiella pneumoniae [23]) of 32 µg/mL and a mortality at 24 h, 8 microg/ml [24] of 0%. The MIC (Candida albicans [25]) was 2 µg/mL, the inhibition at 128 µg/mL (Pseudomonas aeruginosa [26]) was 50% and the MIC (Staphylococcus aureus [27]) was 4 µg/mL. The LC50 at 24 h [28] was 93.4 µg/mL (≈ 257 µM), the “fractional inhibitory concentration index (FICI)” value (Candida albicans [29]) was 0.129 and the MIC (Staphylococcus aureus [30]) was 8 µg/mL. The MIC65 (Pseudomonas aeruginosa [31]) was 128 µg/mL, the MIC (Klebsiella pneumoniae [32]) was 2 µg/mL and the “fractional inhibitory concentration index (FICI)” value (Klebsiella pneumoniae [33]) was 0.6. It also gave an MIC (Staphylococcus aureus [34]) of 0.5 µg/mL and a mortality at 24 h, 32 microg/ml [35] of 5%.
`CC1=C(CC/C=C(/C)C(=O)NC(=N)N)[C@@]2(C)CCCC(C)(C)[C@@H]2CC1` gave an MIC [5] of 4 µg/mL, an MIC (Staphylococcus aureus [8]) of 4 µg/mL and an MIC (Candida albicans [2]; read-out: MIC) of 8 µg/mL (≈ 23.2 µM). For the same compound, the MIC [20] was 4 µg/mL and the MIC (Staphylococcus aureus [27]) was 4 µg/mL.
